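Step 1: Grow cells in 96-well plates. Step 2: Expose to compound for 48 hours at 5 concentrations. Step 3: Interpolate endpoints linearly; if unreached, use highest concentration. Here, GI50 denotes the concentration required for 50% inhibition of growth.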 Activity calls are given as the source filed them. Rule as the data show it: active = GI50 up to about 1.1 µM and inactive = higher.
Tests used:
Experiment in all cases: NCI anticancer screen, dose series, 48 h
SNB-78 = tested on: SNB-78
OVCAR-5 = tested on: OVCAR-5
OVCAR-3 = tested on: OVCAR-3
DLD-1 = tested on: DLD-1
XF498 = tested on: XF498
SNB-75 = tested on: SNB-75
SR = tested on: SR
UACC-62 = tested on: UACC-62
DMS-273 = tested on: DMS-273
CCRF-CEM = tested on: CCRF-CEM
HCC 2998 = tested on: HCC 2998
LXFL 529 = tested on: LXFL 529
SW-620 = tested on: SW-620
UACC-257 = tested on: UACC-257
SK-OV-3 = tested on: SK-OV-3
SK-MEL-28 = tested on: SK-MEL-28
HOP-18 = tested on: HOP-18
A498 = tested on: A498
COLO 205 = tested on: COLO 205
HCT-15 = tested on: HCT-15
HT-29 = tested on: HT-29
A549 = tested on: A549
NCI-H460 = tested on: NCI-H460
HOP-92 = tested on: HOP-92
M14 = tested on: M14
UO-31 = tested on: UO-31
K562 = tested on: K562
KM12 = tested on: KM12
EKVX = tested on: EKVX
SK-MEL-2 = tested on: SK-MEL-2
NCI-H23 = tested on: NCI-H23
HL-60 = tested on: HL-60
LOX IMVI = tested on: LOX IMVI
CAKI-1 = tested on: CAKI-1
SF-539 = tested on: SF-539
SK-MEL-5 = tested on: SK-MEL-5
Malme-3M = tested on: Malme-3M
SF-268 = tested on: SF-268
MOLT-4 = tested on: MOLT-4
KM-20L2 = tested on: KM-20L2
SNB-19 = tested on: SNB-19
786-0 = tested on: 786-0
U-251 = tested on: U-251
IGROV-1 = tested on: IGROV-1
HCT-116 = tested on: HCT-116
SF-295 = tested on: SF-295
RXF 393 = tested on: RXF 393
DMS-114 = tested on: DMS-114
HOP-62 = tested on: HOP-62
M19-MEL = tested on: M19-MEL
ACHN = tested on: ACHN
TK-10 = tested on: TK-10
SN12C = tested on: SN12C
OVCAR-4 = tested on: OVCAR-4
OVCAR-8 = tested on: OVCAR-8

In the case of `N#CC1=C(N)Oc2c(ccc3cccnc23)C1c1ccccc1` (stereo not given), the GI50 (SNB-78) is reported as 1.45 µM (inactive), the GI50 (OVCAR-5) is reported as 72.4 µM (inactive) and the GI50 (OVCAR-3) is reported as 0.608 µM (active). The GI50 (DLD-1) was 2.3 µM (inactive), the GI50 (XF498) was 7.98 µM (inactive) and the GI50 (SNB-75) was 0.731 µM (active). The GI50 (SR) was 0.333 µM (active), the GI50 (UACC-62) was 0.697 µM (active) and the GI50 (DMS-273) was 0.445 µM (active). The GI50 (CCRF-CEM) was 1.44 µM (inactive), the GI50 (HCC 2998) was 4.69 µM (inactive) and the GI50 (LXFL 529) was 1.7 µM (inactive). For the same compound, the GI50 (SW-620) was 0.51 µM (active), the GI50 (UACC-257) was 3.61 µM (inactive) and the GI50 (SK-OV-3) was 0.731 µM (active). The GI50 (SK-MEL-28) was 6.12 µM (inactive), the GI50 (HOP-18) was > 100 µM (inactive) and the GI50 (A498) was 2.21 µM (inactive). The GI50 (COLO 205) was 1.24 µM (inactive), the GI50 (HCT-15) was 0.443 µM and the GI50 (HT-29) was 0.339 µM (active). For the same compound, the GI50 (A549) was 0.738 µM (active), the GI50 (NCI-H460) was 0.738 µM (active) and the GI50 (HOP-92) was 9.35 µM (inactive). For the same compound, the GI50 (M14) was 0.57 µM (active), the GI50 (UO-31) was 4.46 µM (inactive) and the GI50 (K562) was 0.396 µM (active). For the same compound, the GI50 (KM12) was 0.441 µM (active), the GI50 (EKVX) was 4.78 µM (inactive) and the GI50 (SK-MEL-2) was 0.296 µM (active). The GI50 (NCI-H23) was 1.31 µM (inactive), the GI50 (HL-60) was 0.267 µM (active) and the GI50 (LOX IMVI) was 1.34 µM (inactive). For the same compound, the GI50 (CAKI-1) was 0.619 µM (active), the GI50 (SF-539) was 1.25 µM (inactive) and the GI50 (SK-MEL-5) was 0.811 µM (active). The GI50 (Malme-3M) was 15.2 µM (inactive), the GI50 (SF-268) was 2.73 µM (inactive) and the GI50 (MOLT-4) was 0.667 µM (active). The GI50 (KM-20L2) was 0.555 µM (active), the GI50 (SNB-19) was 5.3 µM (inactive) and the GI50 (786-0) was 6 µM (inactive). The GI50 (U-251) was 0.908 µM (active), the GI50 (IGROV-1) was 0.847 µM (active) and the GI50 (HCT-116) was 0.562 µM (active). The GI50 (SF-295) was 0.515 µM (active), the GI50 (RXF 393) was 2.13 µM (inactive) and the GI50 (DMS-114) was 0.914 µM (active). The GI50 (HOP-62) was 1.16 µM (inactive), the GI50 (M19-MEL) was 1.67 µM (inactive) and the GI50 (ACHN) was 10.4 µM (inactive). For the same compound, the GI50 (TK-10) was 3.9 µM (inactive), the GI50 (SN12C) was 3.3 µM (inactive) and the GI50 (OVCAR-4) was 17.2 µM (inactive). For the same compound, the GI50 (OVCAR-8) was 3.38 µM (inactive).

— ChEMBL document CHEMBL1201862, “PubChem BioAssay data set” (2004)
